Measured values published in PMC11596155, “When Chirality Makes the Difference: The Case of Novel Enantiopure N-Heterocyclic Carbene–Gold and –Silver Complexes” (Molecules, 2024).

Tests used:
MCF-7 cells = test: MTT assay, anticancer activity, MCF-7; format: cell-based, human; settings: mean ± SD of three experiments
Procedure: (§1) All cell lines used for the reported studies were purchased from the American Type Culture Collection (ATCC, Manassas, VA, USA). Human breast cancer cells MCF-7 and MDA-MB-231 were maintained in Dulbecco’s Modified Eagle Medium/Nutrient Mixture F12 Ham (DMEM/F12) supplemented with 5% fetal bovine serum (FBS), 1% L-glutamine and 100 units/mL of penicillin/streptomycin. Human mammary epithelial cells MCF-10A were cultured in DMEM/F12 medium, supplemented with 5% horse serum (HS), 100 units/mL of penicillin/streptomycin, […], 0.02 µg/mL human epidermal growth factor (EGF), 10 µg/mL insulin and […] [34]. The murine macrophages RAW 264.7 were grown in Dulbecco’s Modified Eagle’s Medium (DMEM) high glucose (4.5 g/L), added with 10% fetal bovine serum (FBS), 1% L-glutamine and 100 units/mL of penicillin/streptomycin. Cells were maintained at 37 °C, in a humidified atmosphere containing 5% CO2.
(§2) Cell viability was determined using the 3-(4,5-dimethylthiazol-2-y1)-2,5-diphenyltetrazolium bromide assay (MTT, Sigma-Aldrich, Milan, Italy), as in [35]. Cells were treated for 72 h (anticancer activity) or 24 h (anti-inflammatory activity) at different concentrations and the IC50 values were obtained using GraphPad Prism 9 software (GraphPad Software, La Jolla, CA, USA).

MCF-10A cells = test: MTT assay, cytotoxicity on normal mammary epithelial cells MCF-10A; format: cell-based, human; settings: 72 h, normal cells, mean ± SD of three experiments
Procedure: as §1, §2

[1] = system: Staphylococcus aureus (ATCC 23235); test: MIC and MBC by broth dilution, S. aureus; format: cell-based; settings: for M.B.C. S. aureus / M.I.C. S. aureus / MIC: broth dilution, overnight 37 °C; for MIC: Staphylococcus aureus, ATCC23235, read-out: M.I.C. S. aureus
From the text: (§3) The bacterial strains used for MIC and MBC value determinations expressed as µg/mL by the broth dilution method, according to CLSI guidelines, were the following: Gram-negative: Escherichia coli (ATCC® 25922TM); Gram-positive: Staphylococcus aureus (ATCC® 23235TM). The MIC represents the lowest concentration of compound able to inhibit the visible microbial growth, expressed in μg/mL, whereas the MBC is the lowest concentration of a given compound that can completely kill the bacteria. Bacteria were grown overnight in LB medium (2%), diluted at a density of […] colony forming units (CFUs/mL), plated in the 96-well microplates to obtain a total inoculum load of ca. 10^5 cells/well and then treated with increasing concentrations of the tested complexes (1, 5, 10, 20, 50, 100, 200 μg/mL). Successively, after incubation at 37 °C overnight, the bacterial growth was monitored at a wavelength of 600 nm using a Multiskan spectrophotometer (Multiskan Ex Microplate model; Thermo Scientific, Nyon, Switzerland). MIC or MBC values were obtained by comparing cell density with a positive control (bacterial cells grown in LB medium were added with only the vehicle, DMSO). The results were representative of three independent experiments performed in triplicate and ampicillin (Sigma Aldrich A9393) was used as the control for strain sensitivity.

MDA-MB-231 cells = test: MTT assay, anticancer activity, MDA-MB-231; format: cell-based, human; settings: for IC50: mean ± SD of three experiments
Procedure: as §1, §2

[2] = system: Escherichia coli (ATCC 25922); test: MIC and MBC by broth dilution, E. coli; format: cell-based; settings: for M.B.C. E. coli / M.I.C. E. coli / MIC: broth dilution, overnight 37 °C; for MIC: Escherichia coli, ATCC25922
From the text: as §3

[3] = system: NO production in LPS-stimulated RAW 264.7 macrophages (iNOS); test: Griess assay, NO production in LPS-stimulated RAW 264.7 macrophages; format: cell-based, murine; settings: 50 µM, 24 h, LPS 1 µg/mL, RAW 264.7, vs LPS only
From the text: Inflammation is an important process, in which the immune system is activated, allowing the protection from infections by eliminating pathogens and promoting repairing phenomena. However, in some cases, the inflammation can become chronic, playing a key role in several diseases, such as cancer, diabetes, autoimmune and neurodegenerative disorders. Moreover, chronic inflammation is characterized by a proliferation of different specialized cells, for instance macrophages, fibroblasts, granulocytes and so on. […] NO is produced by nitric oxide synthases (NOS) isoforms, but under different pro-inflammatory stimuli (cytokines or microbial products) it is massively produced by the inducible NOS (iNOS, NOS2; or type II NOS). iNOS can be also overexpressed in several diseases, producing NO in an unregulated manner and contributing to the disease progression. For these reasons, its inhibition represents a good strategy for the treatment of various diseases related to chronic inflammation, amongst them cancer. The anti-inflammatory activity, in terms of NO production inhibition, of the new synthesized chiral complexes was evaluated by the means of a Griess-based assay. Particularly, the NO production was induced in murine macrophages RAW 264.7 stimulated with bacterial lipopolysaccharide (LPS), then they were exposed to the complexes for 24 h and the released NO was quantified (as detailed in the Section 3). […] Therefore, pro-ligands P1 and P2, as R and S pure enantiomers, were tested. The obtained outcomes are visible in Figure 2 (panels A and B, P1 and P2 series, respectively), where it is possible to notice “at glance” that most of the enantiopure compounds were unable to decrease the NO synthesis, induced by LPS treatment in RAW 264.7 macrophages (see pink bars in the graph), with the exception of (R)-AuL1 and (R)-AuL2. Particularly, (R)-AuL1 was able to decrease, dose-dependently, the NO production of about 23 and 35% at 5 and 10 µM, respectively, whereas the S enantiomer was unable to reduce NO, under the same experimental conditions. […] Furthermore, none of the pro-ligands was found able to decrease NO production. […] Finally, viability assays were performed on RAW 264.7 macrophages, recovered after the Griess test.
Anti-inflammatory activity was tested adopting the Griess assay on RAW 264.7 murine macrophages, by measuring NO production, as reported by. Specifically, RAW 264.7 cells were plated on 48 multi-wells and treated with the tested molecules at the indicated concentrations; lipopolysaccharide (LPS, Sigma Aldrich, Milan, Italy), at a final concentration of 1 µg/mL, was used to induce inflammation and stimulate NO production. After 24 h, the cell medium and Griess reagent were mixed at a 1:1 ratio and left under agitation for 30 min, at room temperature. Then, absorbance was measured at 540 nm, using a multiplate reader. The absorbance obtained allowed to assess the percentage of NO production compared with the positive control, in which the cells have been treated with LPS.
Figure 2 Panel (A), L1 series and panel (B), L2 series. Anti-inflammatory activity (pink bars): NO production was induced in murine macrophages RAW 264.7 treated with LPS (1 µg/mL), in presence or not of the enantiopure complexes and pro-ligands at the indicated concentrations (µM), for 24 h. Indomethacin (Ind) was used as the reference molecule. Data were plotted as % NO inhibition with respect to LPS-only treatment. […]

Structure (SMILES) | IC50 (MCF-7 cells; 72 h) | IC50 (MCF-10A cells) | M.B.C. S. aureus [1] | M.I.C. S. aureus [1] | IC50 (MDA-MB-231 cells; 72 h) | M.B.C. E. coli [2] | M.I.C. E. coli [2] | effect on MDA-MB-231 viability (in words) (MDA-MB-231 cells; 72 h) | decrease of NO production [3] | IC50 (MCF-7 cells; Homo sapiens, MCF7, 72 h) | IC50 (MCF-10A cells; Homo sapiens, MCF-10A) | MIC [1] | IC50 (MDA-MB-231 cells; Homo sapiens, MDA-MB-231, 72 h) | MIC [2] | strain sensitivity S. aureus (in words) ([1]; control for strain sensitivity) | strain sensitivity E. coli (in words) ([2]; control for strain sensitivity)
CN1C(Cl)=C(Cl)N(C[C@H](O)c2ccccc2)[CH]1[AgH][I] (stereo partly drawn) [(R)-AgL2, (4,5-dichloro-1-((R)-2-hydroxy-2-phenylethyl)-3-methyl-2,3-dihydro-1H-imidazol-2-yl)silver(I) iodide] | 18.4 ± 0.9 µM | 69.2 ± 2.7 µM | > 150 µg/mL | 75 µg/mL | 6.7 ± 0.7 µM | > 100 µg/mL | 50 µg/mL | – | – | – | – | – | – | – | – | –
CN1C(Cl)=C(Cl)N(C[C@@H](O)c2ccccc2)[CH]1[AgH][I] (stereo partly drawn) [(S)-AgL2, (4,5-dichloro-1-((S)-2-hydroxy-2-phenylethyl)-3-methyl-2,3-dihydro-1H-imidazol-2-yl)silver(I) iodide] | 4 ± 0.5 µM | > 200 µM | > 200 µg/mL | 75 µg/mL | > 200 µM | > 200 µg/mL | 75 µg/mL | inactive | – | – | – | – | – | – | – | –
COc1ccc2c(c1)c(CC(=O)O)c(C)n2C(=O)c1ccc(Cl)cc1 [Ind, Indomethacin, reference compound] | – | – | – | – | – | – | – | – | about 26% | – | – | – | – | – | – | –
C[n+]1ccn(C[C@@H](O)c2ccccc2)c1.[I-] [(S)-P1, (S)-1-(2-hydroxy-2-phenylethyl)-3-methyl-1H-imidazol-3-ium iodide] | – | – | > 150 µg/mL | – | – | > 200 µg/mL | – | – | – | > 200 µM | > 200 µM | 75 µg/mL | > 200 µM | 100 µg/mL | – | –
CC1(C)S[C@@H]2[C@H](NC(=O)[C@H](N)c3ccccc3)C(=O)N2[C@H]1C(=O)O [ampicillin, reference compound] | – | – | – | – | – | – | – | – | – | – | – | – | – | – | sensitive | sensitive
CN1C(Cl)=C(Cl)N(C[C@@H](O)c2ccccc2)[CH]1[Au-][Cl] (stereo partly drawn) [(S)-AuL2, (4,5-dichloro-1-((S)-2-hydroxy-2-phenylethyl)-3-methyl-2,3-dihydro-1H-imidazol-2-yl)gold(I) chloride] | 10 ± 0.5 µM | 17.2 ± 1.6 µM | > 100 µg/mL | 75 µg/mL | 11.5 ± 0.4 µM | > 200 µg/mL | 100 µg/mL | – | – | – | – | – | – | – | – | –
CN1C=CN(C[C@H](O)c2ccccc2)[CH]1[AgH][I] (stereo partly drawn) [(R)-AgL1, (1-((R)-2-hydroxy-2-phenylethyl)-3-methyl-2,3-dihydro-1H-imidazol-2-yl)silver(I) iodide] | 14.5 ± 1.2 µM | 54.8 ± 2.1 µM | > 150 µg/mL | 75 µg/mL | 9.2 ± 0.5 µM | > 100 µg/mL | 25 µg/mL | – | – | – | – | – | – | – | – | –
CN1C=CN(C[C@@H](O)c2ccccc2)[CH]1[AgH][I] (stereo partly drawn) [(S)-AgL1, (1-((S)-2-hydroxy-2-phenylethyl)-3-methyl-2,3-dihydro-1H-imidazol-2-yl)silver(I) iodide] | 69.8 ± 2.1 µM | > 200 µM | > 100 µg/mL | 50 µg/mL | > 200 µM | > 200 µg/mL | 75 µg/mL | – | – | – | – | – | – | – | – | –
C[n+]1ccn(C[C@H](O)c2ccccc2)c1.[I-] [(R)-P1, (R)-1-(2-hydroxy-2-phenylethyl)-3-methyl-1H-imidazol-3-ium iodide] | – | – | > 150 µg/mL | – | – | > 200 µg/mL | – | – | – | > 200 µM | > 200 µM | 75 µg/mL | > 200 µM | 100 µg/mL | – | –
C[n+]1cn(C[C@H](O)c2ccccc2)c(Cl)c1Cl.[I-] [(R)-P2, (R)-4,5-dichloro-1-(2-hydroxy-2-phenylethyl)-3-methyl-1H-imidazol-3-ium iodide] | – | – | > 150 µg/mL | – | – | > 200 µg/mL | – | – | – | > 200 µM | > 200 µM | 75 µg/mL | > 200 µM | 75 µg/mL | – | –
CN1C=CN(C[C@@H](O)c2ccccc2)[CH]1[Au-][Cl] (stereo partly drawn) [(S)-AuL1, (1-((S)-2-hydroxy-2-phenylethyl)-3-methyl-2,3-dihydro-1H-imidazol-2-yl)gold(I) chloride] | 14.6 ± 1 µM | 64.5 ± 3.2 µM | > 150 µg/mL | 75 µg/mL | 22.6 ± 0.4 µM | > 150 µg/mL | 75 µg/mL | – | – | – | – | – | – | – | – | –
C[n+]1cn(C[C@@H](O)c2ccccc2)c(Cl)c1Cl.[I-] [(S)-P2, (S)-4,5-dichloro-1-(2-hydroxy-2-phenylethyl)-3-methyl-1H-imidazol-3-ium iodide] | – | – | > 200 µg/mL | – | – | > 150 µg/mL | – | – | – | > 200 µM | > 200 µM | 75 µg/mL | > 200 µM | 75 µg/mL | – | –
